Test results reported in patent US4581354A, “3-arylcarbonyl- and 3-cycloalkylcarbonyl-1-aminoalkyl-1H-indoles, compositions and use” (Sterling Drug Inc., priority 1985, dated 1986).
Where a name gives a salt, the structure may show the parent alone. Read-outs that look alike come from different tables or passages of the source.

Key:
[1] = test system: acetylcholine-induced abdominal constriction; experiment: animal or person; type: in vivo, mice; details: Mus musculus; for ED50: read-out: Ach ED50; for inhibition in vivo at 3 mg/kg: 3 mg./kg. i.v.; for inhibition in vivo at 10 mg/kg: 10 mg./kg. i.v.; for inhibition in vivo at 1 mg/kg: 1 mg./kg. i.v.; for inhibition in vivo at 300 mg/kg: 300 mg./kg. oral
bradykinin = experiment: anti-bradykinin test (BRDK); type: in vivo; details: for inhibition in vivo at 50 mg/kg: 50 mg./kg. oral; for inhibition in vivo at 200 mg/kg: 200 mg./kg. oral; for inhibition in vivo at 300 mg/kg: 300 mg./kg. oral; for inhibition in vivo at 30 mg/kg: 30 mg./kg. oral
Text: (§1) The test procedures used to determine the analgesic activities of the compounds have been described in detail in the prior art and are as follows: The acetylcholine-induced abdominal constriction test, which is a primary analgesic screening test designed to measure the ability of a test agent to suppress acetylcholine-induced abdominal constriction in mice, described by Collier et al., Brit. J. Pharmacol. Chemotherap. 32, 295 (1968); a modification of the anti-bradykinin test, which is also a primary analgesic screening procedure, described by Berkowitz et al., J. Pharmacol. Exptl. Therap. 177, 500-508 (1971), Blane et al., J. Pharm. Pharmacol. 19, 367-373 (1967), Botha et al., Eur. J. Pharmacol. 6, 312-321 (1969) and Deffenu et al., J. Pharm. Pharmacol. 18, 135 (1966); and the rat paw flexion test, described by Kuzuna et al., Chem. Pharm. Bull., 23, 1184-1191 (1975), Winter et al., J. Pharm. Exptl. Therap., 211, 678-685 (1979) and Capetola et al., J. Pharm. Exptl. Therap. 214, 16-23 (1980).
(§2) Unless noted otherwise, all data were obtained on oral administration and are expressed either as the ED50 or as the percent inhibition at a given dose level (thus 30/100 or 30% inhibition at […].)
(§3) In some instances, the compounds were retested two or more times, and ED50 values were calculated for each series of repeat tests. In such instances, each of the ED50 values so-obtained is given in a series of values, thus 6, 28, 30, 43 in the case of the species of Example 1AW in the acetylcholine-induced abdominal constriction test.

rat paw flexion = rat paw flexion test (P.F.); type: in vivo; details: for ED50: oral; for inhibition in vivo at 30 mg/kg: 30 mg./kg. oral; for inhibition in vivo at 100 mg/kg: 100 mg./kg. oral; for inhibition in vivo at 300 mg/kg: 300 mg./kg. oral; for inhibition in vivo at 10 mg/kg: 10 mg./kg. oral
Text: as §1, §2, §3

[2] = read-out: BRDK percent inhibition
[3] = po, read-out: P.F. percent inhibition
[4] = iv, read-out: Ach percent inhibition
[5] = 100 mg./kg. oral, read-out: BRDK percent inhibition
[6] = po, read-out: Ach percent inhibition

Cc1c(C(=O)c2cccs2)c2ccccc2n1CCN1CCOCC1 [Example 1AT]
ED50 ([1]; po): 30 mg/kg | inhibition in vivo at 50 mg/kg (bradykinin; [2]): 0% | inhibition in vivo at 200 mg/kg (bradykinin; [2]): 0%

Cc1ccc(C(=O)c2c(C)n(CCN3CCOCC3)c3ccccc23)cc1 [Example 1AE]
ED50 ([1]; po): 29 mg/kg | inhibition in vivo at 300 mg/kg (bradykinin; [2]): 20% | ED50 (rat paw flexion): 66.2 mg/kg

COc1ccc(C(=O)c2c(C)n(CCN3CCCC(O)C3)c3ccccc23)cc1 (centres unmarked) [Example 3B, 1-[2-(3-hydroxy-1-piperidinyl)ethyl]-2-methyl-3-(4-methoxybenzoyl)-1H-indole]
ED50 ([1]; iv): 3 mg/kg | ED50 ([1]; po): 26.5 mg/kg | ED50 ([1]; sc): 10 mg/kg | inhibition in vivo at 30 mg/kg (rat paw flexion; [3]): 50% | inhibition in vivo at 100 mg/kg (rat paw flexion; [3]): 86% | inhibition in vivo at 300 mg/kg (rat paw flexion; [3]): 86%

O=C(c1ccccc1)c1cn(CCN2CCOCC2)c2ccccc12 [Example 1AP]
ED50 ([1]; po): 42 mg/kg | inhibition in vivo at 50 mg/kg (bradykinin; [2]): 0% | inhibition in vivo at 200 mg/kg (bradykinin; [2]): 33% | inhibition in vivo at 400 mg/kg (bradykinin; 400 mg./kg. oral, read-out: BRDK percent inhibition): 60%

COc1ccc(C(=O)c2c(C)n(CCN3CCOCC3)c3ccccc23)cc1 [Example 1B, 2-methyl-3-(4-methoxybenzoyl)-1-[2-(4-morpholinyl)ethyl]-1H-indole]
ED50 ([1]; iv): 6.7 mg/kg | ED50 (bradykinin; iv): 8.1 mg/kg

CC(CN1CCOCC1)n1cc(C(=O)c2ccccc2)c2ccccc21 (centres unmarked) [Example 1AY]
ED50 ([1]; iv): 8.5 mg/kg | ED50 (bradykinin; po): 141 mg/kg | inhibition in vivo at 30 mg/kg (rat paw flexion; [3]): 0% | inhibition in vivo at 100 mg/kg (rat paw flexion; [3]): 0% | inhibition in vivo at 300 mg/kg (rat paw flexion; [3]): 20%

Cc1c(C(=O)c2cccc(N)c2)c2ccccc2n1CCN1CCOCC1 [Example 4A, 2-methyl-3-(3-aminobenzoyl)-1-[2-(4-morpholinyl)ethyl]-1H-indole]
ED50 ([1]; po): 16 mg/kg | ED50 (bradykinin; po): 53 mg/kg

COc1ccc(C(=O)c2cn(CCN3CCOCC3)c3ccccc23)cc1.CS(=O)(=O)O.O [Example 1A, 3-(4-methoxybenzoyl)-1-[2-(4-morpholinyl)ethyl]-1H-indole methanesulfonate monohydrate]
ED50 ([1]; po): 73 mg/kg | ED50 (bradykinin; po): 56 mg/kg

Cc1c(C(=O)c2ccccc2F)c2ccccc2n1C(C)CN1CCOCC1 (centres unmarked) [Example 2C]
ED50 ([1]; iv): 3.3 mg/kg | ED50 ([1]; po): 19 mg/kg | inhibition in vivo at 30 mg/kg (bradykinin; [2]): 0% | inhibition in vivo at 300 mg/kg (bradykinin; [2]): 60%

Cc1c(C(=O)c2ccccc2)c2ccccc2n1C(C)CN1CCOCC1 (centres unmarked) [Example 1AW]
ED50 (bradykinin; po): 229 mg/kg | ED50 (rat paw flexion): 26 mg/kg

CCc1ccc(C(=O)c2c(C)n(CCN3CCOCC3)c3ccccc23)cc1 [Example 1AC]
inhibition in vivo at 1.77 mg/kg ([1]; iv, 1.77 mg./kg. i.v., read-out: Ach percent inhibition): 10% | inhibition in vivo at 2.2 mg/kg ([1]; iv, 2.2 mg./kg. i.v., read-out: Ach percent inhibition): 10% | inhibition in vivo at 3 mg/kg [1, 4]: 80% | inhibition in vivo at 10 mg/kg [1, 4]: 100% | ED50 ([1]; po): 30 mg/kg | inhibition in vivo at 200 mg/kg (bradykinin; [2]): 0% | inhibition in vivo at 30 mg/kg (rat paw flexion; [3]): 43% | inhibition in vivo at 50 mg/kg (rat paw flexion; po, 50 mg./kg. oral, read-out: P.F. percent inhibition): 57% | inhibition in vivo at 100 mg/kg (rat paw flexion; [3]): 75%

Cc1c(C(=O)c2ccc([S+](C)[O-])cc2)c2ccccc2n1CCN1CCOCC1 (centres unmarked) [Example 1F]
ED50 ([1]; iv): 13 mg/kg | ED50 ([1]; po): 20 mg/kg | inhibition in vivo at 200 mg/kg (bradykinin; [2]): 0% | inhibition in vivo at 100 mg/kg (rat paw flexion; [3]): 88%

Cc1c(C(=O)c2cc3ccccc3o2)c2ccccc2n1CCN1CCOCC1 [Example 1S]
inhibition in vivo at 1 mg/kg [1, 4]: 10% | inhibition in vivo at 3 mg/kg [1, 4]: 20% | inhibition in vivo at 10 mg/kg [1, 4]: 100% | ED50 ([1]; po): 40 mg/kg | ED50 (bradykinin; po): 162 mg/kg

CC(=O)Nc1ccc(C(=O)c2c(C)n(CCN3CCOCC3)c3ccccc23)cc1 [Example 5A, 2-methyl-3-(4-acetylaminobenzoyl)-1-[2-(4-morpholinyl)ethyl]-1H-indole]
inhibition in vivo at 1 mg/kg [1, 4]: 20% | inhibition in vivo at 3 mg/kg [1, 4]: 29% | inhibition in vivo at 10 mg/kg [1, 4]: 30% | ED50 ([1]; po): 31 mg/kg | inhibition in vivo at 300 mg/kg (bradykinin; [2]): 0%

CNc1ccc(C(=O)c2c(C)n(CCN3CCOCC3)c3ccccc23)cc1 [Example 8A, 2-methyl-3-(4-methylaminobenzoyl)-1-[2-(4-morpholinyl)-ethyl]-1H-indole dihydrochloride hemihydrate]
ED50 ([1]; po): 32 mg/kg | inhibition in vivo at 30 mg/kg (rat paw flexion; [3]): 62%

Cc1c(C(=O)c2ccc(CNC(=N)N)cc2)c2ccccc2n1CCN1CCOCC1 [Example 17, 2-methyl-3-(4-guanidinylmethylbenzoyl)-1-[2-(4-morpholinyl)ethyl]-1H-indole sulfate (2:1)]
inhibition in vivo at 30 mg/kg ([1]; po, 30 mg./kg. oral, read-out: Ach percent inhibition): 7% | ED50 ([1]; sc): 6.6 mg/kg | inhibition in vivo at 100 mg/kg (bradykinin; sc, 100 mg./kg. s.c., read-out: BRDK percent inhibition): 33%

CSc1ccc(C(=O)c2c(C)n(CCN3CCOCC3)c3ccccc23)cc1 [Example 1D]
ED50 ([1]; iv): 5.1 mg/kg | ED50 ([1]; sc): 49 mg/kg | inhibition in vivo at 100 mg/kg (bradykinin; [5]): 0% | ED50 (rat paw flexion): 64 mg/kg

CC(=O)Nc1cccc(C(=O)c2c(C)n(CCN3CCOCC3)c3ccccc23)c1 [Example 5B]
ED50 ([1]; po): 25 mg/kg | ED50 (bradykinin; po): 61 mg/kg | inhibition in vivo at 10 mg/kg (rat paw flexion; [3]): 0% | inhibition in vivo at 30 mg/kg (rat paw flexion; [3]): 12% | inhibition in vivo at 100 mg/kg (rat paw flexion; [3]): 12%

Cc1c(C(=O)c2ccc(O)cc2)c2ccccc2n1CCN1CCOCC1.Cl [Example 6, 2-methyl-3-(4-hydroxybenzoyl)-1-[2-(4-morpholinyl)ethyl]-1H-indole hydrochloride]
inhibition in vivo at 10 mg/kg [1, 4]: 0% | inhibition in vivo at 30 mg/kg ([1]; iv, 30 mg./kg. i.v., read-out: Ach percent inhibition): 0% | ED50 ([1]; po): 83 mg/kg | inhibition in vivo at 30 mg/kg ([1]; sc, 30 mg./kg. s.c., read-out: Ach percent inhibition): 13% | inhibition in vivo at 100 mg/kg (bradykinin; [5]): 0% | inhibition in vivo at 300 mg/kg (bradykinin; [2]): 0%

Cc1c(C(=O)c2ccc(NC(=O)C(F)(F)F)cc2)c2ccccc2n1CCN1CCOCC1 [Example 5C, 2-methyl-3-[4-(N-trifluoroacetylamino)benzoyl]-1-[2-(4-morpholinyl)ethyl]-1H-indole]
ED50 ([1]; po): 19 mg/kg | inhibition in vivo at 30 mg/kg (bradykinin; [2]): 20% | inhibition in vivo at 100 mg/kg (bradykinin; [5]): 60% | inhibition in vivo at 300 mg/kg (bradykinin; [2]): 60%

COc1ccc2c(C(=O)c3ccc(Cl)cc3)c(C)n(CCN3CCOCC3)c2c1 [Example 1AU]
ED50 ([1]; po): 42 mg/kg | inhibition in vivo at 50 mg/kg (bradykinin; [2]): 0%

COc1ccc(C(=O)c2c(C)n(C(C)CN3CCOCC3)c3ccccc23)cc1 (centres unmarked) [Example 2I]
ED50 ([1]; iv): 2.6 mg/kg | ED50 ([1]; po): 28 mg/kg | ED50 ([1]; sc): 18 mg/kg | ED50 (bradykinin; po): 132 mg/kg | inhibition in vivo at 100 mg/kg (rat paw flexion; [3]): 62%

COc1ccc2c(C(=O)c3cccs3)c(C)n(CCN3CCOCC3)c2c1 [Example 1AV]
ED50 ([1]; po): 38 mg/kg | inhibition in vivo at 50 mg/kg (bradykinin; [2]): 0%

Cc1c(C(=O)c2ccc(N)cc2)c2ccccc2n1CCN1CCOCC1 [Example 4B, 2-methyl-3-(4-aminobenzoyl)-1-[2-(4-morpholinyl)ethyl]-1H-indole]
ED50 ([1]; iv): 6 mg/kg | ED50 ([1]; po): 24 mg/kg | ED50 (bradykinin; po): 38 mg/kg | ED50 (rat paw flexion): 27.6 mg/kg

Cc1c(C(=O)c2ccccc2)c2ccccc2n1CC(C)N1CCOCC1 (centres unmarked) [Example 1AX]
ED50 ([1]; po): 45 mg/kg | inhibition in vivo at 212 mg/kg (bradykinin; 212 mg./kg. oral, read-out: BRDK percent inhibition): 0%

Cc1c(C(=O)c2ccccc2)c2ccccc2n1CCN1CCOCC1 [Example 1AO]
ED50 ([1]; po): 28 mg/kg | ED50 (bradykinin; po): 111 mg/kg | inhibition in vivo at 100 mg/kg (rat paw flexion; [3]): 75%

COc1ccc(C(=O)c2c(C)n(CCN3CCOCC3)c3ccccc23)c2ccccc12 [Example 1BI]
ED50 ([1]; iv): 0.69 mg/kg | inhibition in vivo at 300 mg/kg [1, 6]: 13% | inhibition in vivo at 100 mg/kg ([1]; sc, 100 mg./kg. s.c., read-out: Ach percent inhibition): 27% | inhibition in vivo at 6 mg/kg (bradykinin; 6 mg./kg. oral, read-out: BRDK percent inhibition): 0%

Cc1c(C(=O)c2ccc(Cl)cc2)c2ccccc2n1CCN1CCOCC1 [Example 1AQ]
ED50 ([1]; iv): 17 mg/kg | inhibition in vivo at 300 mg/kg [1, 6]: 53% | inhibition in vivo at 10 mg/kg (rat paw flexion; [3]): 0% | inhibition in vivo at 30 mg/kg (rat paw flexion; [3]): 12% | inhibition in vivo at 100 mg/kg (rat paw flexion; [3]): 12%
